# Measurements as given in patent US10576086B2, “Triazine derivatives as interferon-gamma inhibitors” (University of Greenwich, priority 2015, dated 2020).
# System: IFN-γ production in human peripheral blood mononuclear cells (PBMCs)
# Test: Experiment 2: IFN-γ production by PHA-stimulated human PBMCs, ELISA
# Type: cell-based
# Settings: for [IFN-γ]: PHA 5 μg/ml
# Experimental: A similar set of tests were carried out, in which three compounds known as CEN-079(3,5-diamino-6-[2-(3,4,5-trichlorothienyl)]-1,2,4-triazine), CEN-092(3,5-diamino-6-(3,5-bistrifluoromethylphenyl)-1,2,4-triazine) and CEN-216(3,5-diamino-6-(2,3-dichlorophenyl)-2,3(2,5)-dihydro-3(5)-imino-2-(2,2,2-trichloroethyl)-1,2,4-triazine) were compared with lamotrigine. CEN-079, CEN-092 and CEN-216 are within the scope of Formulae 1, 2 and 3.
# 50 ml of blood from three healthy adult donors was collected by venepuncture in heparinised tubes. The blood samples where centrifuged at 3000 rpm for 15 minutes. The supernatant plasma was collected in a centrifuge tube, and centrifuged at 3000 rpm for a further 10 minutes. The supernatant was then collected in a plain tube, and stored at −70° C. for future use.
# The cells from the first centrifuged heparinised tube were diluted 1:1 in RPMI-1640, and mixed by multiple inversions. The cell mixture was then slowly layered, using a sterile plastic 3 ml pipette, along a tube wall containing lymphoprep (Nycomed) at a ratio of 2:1 cells/RPMI-1640:Lymphoprep in a 25 ml universal tube. The mixture was centrifuged at 2400 rpm for 30 minutes, and left to stand for 20 minutes. PBMCs were slowly removed from the interface using a sterile plastic pipette, and collected in a 15 ml centrifuge tube.
# The cells were washed twice by diluting in RPMI-1640 with 2 mM L-glutamine, 100 U/ml penicillin and 100 μg/ml streptomycin at a ratio of 1:1. The mixture was centrifuged at 3000 rpm for 15 minutes, and the supernatant decanted. PBMCs were then diluted in RPMI-1640 containing 2 mM L-glutamine, 100 U/ml penicillin and 100 μg streptomycin, to make up a volume of 6 ml for subjects 1 and 2, and 9 ml for subject 3.
# Cells were counted using an Improved Neubauer haemocytometer (Hawksley, UK) on a light microscope. 10 μl of cell suspension was loaded onto the haemocytometer using a sterile plastic pipette. Cells were counted in five out of 25 1 mm squares, from which the total cell count was calculated.
# 5 μg/ml PHA was used as a T cell activating agent for the production of IFN-γ. The PBMCs were treated with the four test compounds (lamotrigine, CEN-079, CEN-092, CEN-216) at concentrations of 10 μM, 30 μM and 300 μM to assess their effects on IFN-γ production by the stimulated T cells.
# The tests were carried out as for Experiment 1, in which 2×10^6 PBMC/ml, 25 μl of 5% autologous plasma, and 2.63 μl of 5 μg/ml PHA were used. Test compound at each concentration was then added, except for one control case.
# 10 μM solutions were obtained by adding 1.05 μl of a 5 mM solution of the compounds to the above PBMC-containing solution. 30 μM solutions were obtained by adding 3.15 μl of the 5 mM solution of the compounds. 300 μM solutions were obtained by adding […] solutions of the compounds.
# The tubes were covered, gently shaken to mix the contents, and incubated for 24 hours at 37° C. The tubes were then centrifuged at 2500 rpm for 10 minutes. The supernatant was collected in a 3 ml plastic pipette, and aliquots were stored at −70° C. before being analysed.
# The test was performed according to the supplier's instructions. Donor samples were diluted 1:1 in phosphate buffered […] (PBS) and assayed simultaneously with IFN-γ standard samples, in duplicate. The standard curve ranged from 15.6 pg/ml to 1000 pg/ml.
# A 96-well multiwell microplate (high binding Costar) was prepared, by diluting a capture antibody (720 μg/ml of mouse anti-human IFN-γ) in PBS to a working concentration of 4.0 μg/ml. 100 μl was immediately coated on each well, and left overnight at room temperature. The wells were washed three times in wash buffer, using microplate autowasher (LT-3000, LabTech International Ltd). The remainder of the wash buffer in the wells was removed by blotting on to clean paper towels. The plate was blocked by adding 300 μl Block buffer (1% BSA in PBS) to each well and incubated at room temperature for 1 hour. […]
smiles,measurement,setting,value
"Nc1nnc(-c2cccc(Cl)c2Cl)c(N)n1 [Lamotrigine, 3,5-diamino-6-(2,3-dichlorophenyl)-1,2,4-triazine]",[IFN-γ] vs control,"10 μM, Subject 1, 24 h",104.7%
same,[IFN-γ],"10 μM, Subject 1, 24 h",732 pg/mL
same,[IFN-γ] vs control,"10 μM, Subject 2, 24 h",78.6%
same,[IFN-γ],"10 μM, Subject 2, 24 h",1591.5 pg/mL
same,[IFN-γ] vs control,"10 μM, Subject 3, 24 h",74.8%
same,[IFN-γ],"10 μM, Subject 3, 24 h",1590.0 pg/mL
same,[IFN-γ] vs control,"30 μM, Subject 1, 24 h",65%
same,[IFN-γ],"30 μM, Subject 1, 24 h",454 pg/mL
same,[IFN-γ] vs control,"30 μM, Subject 2, 24 h",69.1%
same,[IFN-γ],"30 μM, Subject 2, 24 h",1400.5 pg/mL
same,[IFN-γ] vs control,"30 μM, Subject 3, 24 h",39.2%
same,[IFN-γ],"30 μM, Subject 3, 24 h",833.0 pg/mL
same,[IFN-γ] vs control,"300 μM, Subject 1, 24 h",8.5%
same,[IFN-γ],"300 μM, Subject 1, 24 h",59.5 pg/mL
same,[IFN-γ] vs control,"300 μM, Subject 2, 24 h",10.6%
same,[IFN-γ],"300 μM, Subject 2, 24 h",215.0 pg/mL
same,[IFN-γ] vs control,"300 μM, Subject 3, 24 h",8.7%
same,[IFN-γ],"300 μM, Subject 3, 24 h",186.0 pg/mL
same,inhibition of IFN-γ production in PBMCs (in words),"Experiment 2, human PBMCs",shown to be an inhibitor of IFN-γ production in PBMCs
same,IC50,"PBMC, human PBMCs, PHA-stimulated, read-out: IC50 (concentration to inhibit IFN-γ production by 50%)",43 µM
